Results taken from patent US20230339886A1 (University of Florida Research Foundation, Incorporated, priority 2020, published 2023).

Assays:
REV-ERBβ = target: T1, REV-ERBβ (Homo sapiens, UniProt Q14995); test: TR-FRET corepressor interaction assay (REV-ERBβ, FITC-SMRT peptide); assay type: biochemical; settings: Table 2, read-out: REVERBβ agonism (EC50 class, FRET assay)
T1 construct: 6×Histag-REV-ERBα LBD (human; residues 381-579); made in house; host or cells: Escherichia coli
T1 sequence (Q14995 381-579): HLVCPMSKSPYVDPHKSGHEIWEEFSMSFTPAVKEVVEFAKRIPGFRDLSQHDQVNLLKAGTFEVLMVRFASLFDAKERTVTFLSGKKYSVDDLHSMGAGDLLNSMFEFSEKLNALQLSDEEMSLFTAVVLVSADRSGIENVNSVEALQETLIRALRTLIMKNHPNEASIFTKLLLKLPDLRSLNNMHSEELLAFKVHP
Procedure: TR-FRET corepressor interaction assay. The time-resolved fluorescence resonance energy transfer (TR-FRET) assay was performed in black low-volume 384-well plates (Greiner). […] Ligand stocks were prepared via serial dilution in DMSO, added to wells in triplicate, and plates were incubated at 4° C. for 2 h and read using a BioTek Synergy Neo multimode plate reader. The Tb donor was excited at 340 nm; its fluorescence emission was monitored at 495 nm, and the acceptor FITC emission was measured at 520 nm; and the TR-FRET ratio was calculated as the signal at 520 nm divided by the signal at 495 nm. Data were plotted using GraphPad Prism as TR-FRET ratio vs. ligand concentration and fit to sigmoidal dose response curve equation.
Exemplary compounds of the present disclosure were assayed as described above to assess agonism of REV-ERBα and REV-ERBβ.

[1] = target: T2, REV-ERBα LBD (human; residues 281-614 Δ324-422) (Homo sapiens, UniProt P20393, DEL324-422); test: TR-FRET corepressor interaction assay (REV-ERBα LBD, FITC-SMRT peptide); assay type: biochemical; settings: Table 2, read-out: REVERBα agonism (EC50 class, FRET assay)
T2 construct: 6×Histag-REV-ERBα LBD (human; residues 281-614 Δ324-422); made in house; host or cells: Escherichia coli
Procedure, shortened: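 Compound serial dilutions (in DMSO, triplicate) incubated 2 h at 4 °C; Tb donor excited at 340 nm, emission read at 495 nm and FITC acceptor at 520 nm. TR-FRET ratio (520/495 nm) plotted against ligand concentration and fitted to a sigmoidal dose-response curve.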

T2 sequence (P20393 with tags, fused parts or gaps DEL324-422): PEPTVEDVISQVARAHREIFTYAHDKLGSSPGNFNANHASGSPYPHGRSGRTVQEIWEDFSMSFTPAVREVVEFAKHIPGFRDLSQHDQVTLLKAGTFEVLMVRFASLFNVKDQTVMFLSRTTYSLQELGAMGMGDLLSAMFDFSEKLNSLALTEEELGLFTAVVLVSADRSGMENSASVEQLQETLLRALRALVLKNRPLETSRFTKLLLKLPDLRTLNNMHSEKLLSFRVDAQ
T2 sequence (Q9Y618 2335-2356 partner limits assumed): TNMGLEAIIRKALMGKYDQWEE

EC50 (REV-ERBβ) [nM]	EC50 [1] [nM]	SMILES
> 3000	< 500	CC(C)Cn1cc([C@H](NS(=O)(=O)N(C)C)C(F)(F)F)c2cc(F)c(C3CC3)cc21 [Example 329, {[(1S)-1-[6-cyclopropyl-5-fluoro-1-(2-methylpropyl)-1H-indol-3-yl]-2,2,2-trifluoroethyl]sulfamoyl}dimethylamine]
500 to 3000	< 500	CC(C)(C)Cn1cc([C@H](NS(=O)(=O)C2CC2)C(F)(F)F)c2cc(F)c(-c3ccccc3Cl)cc21 [Example 331, (S)—N-(1-(6-(2-chlorophenyl)-5-fluoro-1-neopentyl-1H-indol-3-yl)-2,2,2-trifluoroethyl)cyclopropanesulfonamide]
> 3000	< 500	CC(C)Cn1cc([C@H](NS(=O)(=O)C2CC2)C(F)(F)F)c2ccc(C(C)C)cc21 [Example 333, (S)—N-(2,2,2-trifluoro-1-(1-isobutyl-6-isopropyl-1H-indol-3-yl)ethyl)cyclopropanesulfonamide]
500 to 3000	< 500	CC(C)c1ccc2c([C@H](NS(=O)(=O)N(C)C)C(F)(F)F)cn(CC(C)(C)C)c2c1 [Example 340, {[(1S)-1-[1-(2,2-dimethylpropyl)-6-(propan-2-yl)-1H-indol-3-yl]-2,2,2-trifluoroethyl]sulfamoyl}dimethylamine]
> 3000	< 500	CC(C)(C)Cn1cc([C@H](NS(=O)(=O)C2CC2)C(F)(F)F)c2cc(F)c(Br)cc21 [Example 342, (S)—N-(1-(6-bromo-5-fluoro-1-neopentyl-1H-indol-3-yl)-2,2,2-trifluoroethyl)cyclopropanesulfonamide]
> 3000	< 500	CC(C)Cc1cn(CCNS(=O)(=O)C2CC2)c2ncc(-c3ccncc3)cc12 [Example 365, N-(2-(3-isobutyl-5-(pyridin-4-yl)-1H-pyrrolo[2,3-b]pyridin-1-yl)ethyl)cyclopropanesulfonamide]
